# Source: patent US20050191710A1, “Method for labeling a membrane-localized protein” (priority 2004, published 2005)
# What was measured:
# CFTR = assay: cAMP-stimulated iodide efflux from stably transfected cells; assay type: cell-based, baby hamster kidney (BHK) cells; conditions: for peak iodide efflux: compared to wild-type CFTR
# Excerpt: Since CFTR functions as a chloride channel, responsiveness of the tagged channels to PKA was examined by comparing cAMP-stimulated iodide efflux from cells stably transfected with 1) wild-type CFTR, 2) CFTR with a polyhistidine tag, 3) wild-type CFTR bearing both polyhistidine and biotinylation tags or 4) a ΔF508 CFTR construct that was identical to 3) except for deletion of phenylalanine 508. […] Therefore, similar to epitope-tagging of the fourth extracellular loop (Benharouga, et al. (2003) J. Biol. Chem. 278:22079-22089; Schultz, et al. (1997) Am. J. Physiol. Cell Physiol. 273:C2080-C2089), iodide efflux responses to PKA were preserved after insertion of a biotinylation target sequence.
# Iodide effluxes were measured using standard methods (Cormet-Boyaka, et al. (2002) Proc. Natl. Acad. Sci. USA 99:12477-12482; Cormet-Boyaka, et al. (2002) Proc. Natl. Acad. Sci. USA 99:12477-12482). Briefly, cells were incubated with iodide loading buffer (136 mM NaI, 3 mM KNO3, 2 mM Ca(NO3)2, 11 mM glucose and 20 mM HEPES, pH 7.4) for 1 hour at room temperature. Extracellular NaI was removed by rinsing with iodide-free efflux buffer (same as loading buffer except NaNO3 replaced NaI). Samples were collected by removing the efflux buffer at 1 minute intervals and replacing it with fresh solution. The first three samples established the baseline efflux rate, then cpt-cAMP was added and samples were collected at 1 minute intervals in the continuous presence of cpt-cAMP for 15 minutes. Iodide was measured using an iodide sensitive electrode (Orion Research, Inc., Boston, Mass., USA) and converted to nmoles released/minutes.
# BirA [1] = target: T1, BirA (Escherichia coli, UniProt P06709); conditions: read-out: equilibrium dissociation constant; cited from earlier work
# T1 sequence (P06709 whole entry): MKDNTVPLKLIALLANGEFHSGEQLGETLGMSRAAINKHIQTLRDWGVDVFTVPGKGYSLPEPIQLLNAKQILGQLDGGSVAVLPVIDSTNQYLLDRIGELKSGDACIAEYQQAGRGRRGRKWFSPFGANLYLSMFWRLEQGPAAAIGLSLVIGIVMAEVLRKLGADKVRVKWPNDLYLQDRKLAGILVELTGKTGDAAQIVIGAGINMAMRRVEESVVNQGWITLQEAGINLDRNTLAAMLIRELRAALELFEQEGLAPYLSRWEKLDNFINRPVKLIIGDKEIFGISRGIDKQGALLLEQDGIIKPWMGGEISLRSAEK
# BirA [2] = target: T1, BirA; conditions: estimated from initial rate of biotinyl-5′-AMP synthesis; read-out: KM for ATP; cited from earlier work
molecule,measurement,setting,value
wild-type CFTR bearing both polyhistidine and biotinylation tags: CFTR-biotintag with ten histidines at the C-terminus for purification on nickel-NTA beads,delay of iodide efflux compared to wild-type CFTR,CFTR; cAMP-stimulated,~1 min
same,peak iodide efflux,CFTR; cAMP-stimulated,not diminished
O=C(O)CCCC[C@@H]1SC[C@@H]2NC(=O)N[C@@H]21 [biotin],Kd,BirA [1],0.01 to 0.1 µM
CFTR with a polyhistidine tag: CFTR with glycine and ten histidines added to the C-terminus [reference compound],peak iodide efflux,CFTR; cAMP-stimulated,not diminished
Nc1ncnc2c1ncn2[C@@H]1O[C@H](COP(=O)(O)OP(=O)(O)OP(=O)(O)O)[C@@H](O)[C@H]1O [ATP],Km,BirA [2],3000 µM
"ΔF508CFTR-biotintag: ΔF508 CFTR construct with biotinylation tag, deletion of phenylalanine 508 (disease mutation)",cAMP-stimulated iodide efflux,CFTR,not detected
